Reference: US8771734B2, “Sustained-release hydrogel preparation” (Medgel Corporation, priority 2003, dated 2014)

Experiment: In vitro release experiment (Pt by atomic absorption)
Assay type: physicochemical
Settings: when no interaction with gelatin was created
Experimental: The thus resulting gelatin sheet of 2×2 cm following impregnation of the aqueous CDDP solution (water content: 97%) was placed in 10 ml of a phosphate buffer (PBS, pH 7.4) containing 0.1% Tween80, and shaken in a 37° C. incubator at 60 rpm/min. At a predetermined time, 5 ml of the supernatant was taken out. The same amount of 0.1% Tween80/PBS was immediately added to the sheet and put back in the incubator. Pt concentration in the samples was quantitatively determined three times using an atomic absorption photometer (Hitachi Model Z-8000, Hitachi, Ltd., Tokyo).

[NH2][Pt]([NH2])([Cl])[Cl] [CDDP, cisplatin]
time until CDDP is entirely released: approximately 3 hrs
